Holding throughout (test): NCI tumour cell line growth inhibition, 48 h
For assay [1], the system named is ACHN.
Assay [2] deals with CCRF-CEM.
In assay [3] the test system is DMS-114.
For assay [4], the system named is EKVX.
Assay [5] deals with HCC 2998.
Assay [6] deals with HCT-15.
For assay [7], the system named is HL-60.
Assay [8] has as its system IGROV-1.
Assay [9] has as its system LXFL 529.
Assay [10] deals with Malme-3M.
Assay [11] has as its system NCI-H23.
For assay [12], the system named is NCI-H522.
In assay [13] the test system is OVCAR-5.
Assay [14] deals with SF-268.
In assay [15] the test system is SF-295.
Assay [16] has as its system SR.
In assay [17] the test system is UACC-257.
Assay [18] has as its system BT-549.
Assay [19] relates to PC-3.
For assay [20], the system named is T47D.

Where “and” joins values, the source holds several entries; their conditions need not be identical. Identical values can stand only once.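 Interpolation was linear, between the two tested concentrations surrounding the appropriate level; five concentrations were tested over 48 hours in 96-well plates. At the GI50, growth is halved.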 Calls of active or inactive are those of the source. Rule as the data show it: active = GI50 up to about 1.1 µM and inactive = higher.

Data on 8 compounds can be found in ChEMBL document CHEMBL1201862, “PubChem BioAssay data set” (2004).

Consider `Cc1ccccc1-c1c(N)nc(N)nc1C(=O)Nc1nccs1`, for which the GI50 in assay [1] is > 100 µM (inactive); in assay [2], > 100 µM (inactive); in assay [3], > 100 µM (inactive); in assay [4], > 100 µM (inactive); in assay [5] it was > 100 µM (inactive); in [6], over 100 µM. The GI50 in assay [7], in assay [8], in assay [9], in assay [10], in assay [11] and in assay [12] was > 100 µM (inactive) throughout. Also, the GI50 in assay [13], in assay [14], in assay [15], in assay [16] and in assay [17] was > 100 µM (inactive) each time.

As to `CC1=C(C(=O)Nc2ccccc2)C(c2cc(Cl)cc(Cl)c2)C(C(=O)Nc2ccccc2)=C(C)N1`, the GI50 in assay [1] was 8.15 µM (inactive); in [2], 3.02 µM (inactive); in assay [3], 4.26 µM (inactive); in assay [4], 17.4 µM (inactive); in [5], 11.6 µM (inactive); in [6] it was 1.71 µM. The GI50 was 1.78 µM (inactive) in [7]; 16.1 µM (inactive) in [8]; 3.77 µM (inactive) in [9]; 14.4 µM (inactive) in assay [10]; 5.37 µM (inactive) in [11]; 5.36 µM (inactive) in assay [12]. For the same compound, the GI50 in assay [13] is 19.4 µM (inactive); in [14] it was 9.79 µM (inactive); in assay [15], 10.9 µM (inactive); in assay [16], 2.72 µM (inactive); in assay [17] it was 12.3 µM (inactive).

Regarding `Cc1c(Cl)cccc1NC(=O)CC1Sc2ccccc2NC1=O` (centres undefined), the GI50 in assay [1] was 23.7 µM (inactive) and 23.5 µM (inactive); in assay [18] it was 27 µM (inactive); in assay [2], 68.4 µM (inactive) and 46.2 µM (inactive); in [3], 27.3 µM (inactive) and 18.5 µM (inactive); in [4] it was 46.9 µM (inactive) and 49.8 µM (inactive); in assay [5] it was 14.3 µM (inactive) and 12 µM (inactive). Further, the GI50 in assay [7] was 12.3 µM (inactive) and 8.43 µM (inactive); in assay [9], 45.5 µM (inactive) and 30.1 µM (inactive); in [10], 19.5 µM (inactive) and 18.5 µM (inactive); in assay [11], 35.9 µM (inactive) and 24 µM (inactive); in [12], 27.7 µM (inactive) and 21 µM (inactive); in assay [13], 48.9 µM (inactive) and 51.8 µM (inactive). Also, the GI50 was 27.4 µM (inactive) in [19]; 37.5 µM (inactive) and 21.9 µM (inactive) in [15]; 6.12 µM (inactive) in assay [16]; 25.5 µM (inactive) in [20].

In the case of `O=C(O)c1ccc(C2=Cc3cc(Cl)ccc3OC2)cc1`, the GI50 in assay [1] was > 100 µM (inactive); in assay [2] it was > 100 µM (inactive); in assay [3] it was > 100 µM (inactive); in assay [4] it was > 100 µM (inactive); in [5], > 100 µM (inactive); in assay [6], over 100 µM. Besides, the GI50 in [7], in assay [8], in [9], in [10], in assay [11] and in assay [12] was > 100 µM (inactive) in each case. For the same compound, the GI50 in assay [13], in assay [14], in assay [15], in assay [16] and in assay [17] was > 100 µM (inactive) in each case.

On to `NC1=C(NC(=O)Cc2ccc(F)cc2)C(=O)c2ccccc2C1=O`, for which the GI50 in assay [1] was 59 µM (inactive); in [2], > 53.5 µM (inactive); in assay [3] it was 16 µM (inactive); in [4], > 100 µM (inactive); in [5] it was > 100 µM (inactive); in assay [6], over 100 µM. The GI50 in assay [7] is 35.1 µM (inactive); in [8] it was 23.4 µM (inactive); in assay [9], > 100 µM (inactive); in [10], 49.5 µM (inactive); in assay [11] it was 12.2 µM (inactive); in [12], 22.7 µM (inactive). For the same compound, the GI50 in assay [13] is > 100 µM (inactive); in assay [14], 39.7 µM (inactive); in assay [15], 33.3 µM (inactive); in assay [16], > 76.4 µM (inactive); in assay [17], 79.3 µM (inactive).

Regarding `Cn1c(O)c(C(=O)Nc2ccc([N+](=O)[O-])cc2)c(=O)n(C)c1=S`, the GI50 is 2.48 µM (inactive) in assay [1]; 1.17 µM (inactive) in assay [18]; 2.38 µM (inactive) in [2]; 2.27 µM (inactive) in assay [3]; 2.9 µM (inactive) in assay [4]; 2.47 µM (inactive) in assay [5]. The GI50 in assay [6] is 2.13 µM; in assay [7], 2.25 µM (inactive); in [8], 2.55 µM (inactive); in assay [9], 3.3 µM (inactive); in assay [10] it was 2.11 µM (inactive); in assay [11], 1.42 µM (inactive). Moreover, the GI50 is 2.32 µM (inactive) in assay [12]; 4.91 µM (inactive) in [13]; 1.34 µM (inactive) in assay [19]; 2.64 µM (inactive) in assay [14]; 1.31 µM (inactive) in assay [15]; 3.63 µM (inactive) in [16]. Besides, the GI50 in assay [17] was 2.32 µM (inactive).

Consider `CCCCCCCCCCCCCC(=O)NO`, for which the GI50 in [1] is 14.9 µM (inactive); in [18], 1.16 µM (inactive); in [2], 0.158 µM (active); in assay [3], 3.6 µM (inactive); in [4] it was 21.4 µM (inactive); in assay [5], 14.4 µM (inactive). Further, the GI50 in assay [6] was 3.72 µM; in [7] it was 1.17 µM (inactive); in assay [8], 17.4 µM (inactive); in [9], 5.14 µM (inactive); in assay [10] it was 32.1 µM (inactive); in [11] it was 8.22 µM (inactive). The GI50 is 1.01 µM (active) in assay [12]; 17.6 µM (inactive) in assay [13]; 4.32 µM (inactive) in assay [19]; 7.78 µM (inactive) in [14]; 21.4 µM (inactive) in assay [15]; 0.518 µM (active) in [16]. For the same compound, the GI50 in [17] was 29.2 µM (inactive).

Regarding `COC(=O)C(C(=O)C(=O)Nc1cccc(C)c1)C1=NC(N)SS1` (centres undefined), the GI50 in assay [1] was > 100 µM (inactive); in assay [2], > 100 µM (inactive); in assay [3], > 100 µM (inactive); in assay [4], > 100 µM (inactive); in assay [5], > 100 µM (inactive); in [6], over 100 µM. The GI50 in assay [7], in assay [8], in assay [9], in assay [10], in [11] and in assay [12] was > 100 µM (inactive) each time. The GI50 in [13], in [14], in [15], in [16] and in assay [17] was > 100 µM (inactive) each time.
